Data from the supplement of paper PMC11208160.

test: recombinant barcode read abundance after kanamycin selection (control-corrected) (log10(CPM+1)); higher = more efficient recombination; sequences stand for … in AGTGCAGAGAAAATCGGCCAGTTTTCTCTGCCTGCAGTCCGCATGCCGT…AGATTTATGCAGCGGACTGCCTTTCTCCCAAAGTGATAAACCGGACAGTATCATGGACCGGTTTTCCCGGTAATCCGTATTTGCAAGGTTGGTTTCACT; site = the 11-nt target
Summary of the method: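 Targets and IS621 bridge RNA target-binding loops were paired in oligos, each with a promoter, a barcode and the J23119-driven first 104 bridge RNA bases. A vector carrying the remaining 73 bp and a T7-inducible recombinase received these by Gibson cloning, and the pool was co-electroporated into E. coli with a donor plasmid. Duplicate plates contained chloramphenicol/ampicillin LB agar (control) or chloramphenicol/ampicillin/kanamycin with 0.1 mM IPTG. Recombination efficiency comes from averaged, control-corrected counts per million of recombinant-junction barcodes, reported as log10(CPM+1).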
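Further: IS621 recombinase and bridge RNA in Escherichia coli cells.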

Row | Sequence | recombinant barcode read abundance (log10)
1 | TAGAAGGCTTGGGTTCTAACCTGTTGCTT (site TAGAAGGCTAT) | 0.28
2 | TAGAATCCTTGGGTTCTAACCTGTTGCAA (site TAGAATCCTAT) | 0.15
3 | TAGAATCCTTGGGTTCTAACCTGTTGCAA (site TAGAATCCTCT) | 0.123
4 | TAGAATCCTTGGGTTCTAACCTGTTGCAA (site TAGAATCCTGT) | 0.116
5 | TAGAATCCTTGGGTTCTAACCTGTTGCAA (site TAGAATCCTTT) | 0.147
6 | TAGACGGCTTGGGTTCTAACCTGTTGCAT (site GGATACACTCG) | 0.191
7 | TAGACGGCTTGGGTTCTAACCTGTTGCAT (site TAGACGGCTAT) | 0.463
8 | TAGAGAGCTTGGGTTCTAACCTGTTGCAG (site TAGAGAGCTCT) | 1.94
9 | TAGAGAGCTTGGGTTCTAACCTGTTGCAG (site TAGGGAGCTAT) | 0.265
10 | TAGAGCCCTTGGGTTCTAACCTGTTGCGG (site TAGAGCCCTCC) | 0.953
11 | TAGAGCCCTTGGGTTCTAACCTGTTGCGG (site TCGAGGCCTCC) | 0.0902
12 | TAGATCCCTTGGGTTCTAACCTGTTGCTT (site TAGAACCCTAA) | 0.245
13 | TAGATCCCTTGGGTTCTAACCTGTTGCTT (site TAGATCCCTAA) | 0.528
14 | TAGCACCCTTGGGTTCTAACCTGTTGCCG (site TAGCACCCTAG) | 0.287
15 | TAGCACCCTTGGGTTCTAACCTGTTGCCG (site TAGCACCCTCG) | 1.19
16 | TAGCACCCTTGGGTTCTAACCTGTTGCCG (site TAGCACCCTGG) | 0.239
17 | TAGCACCCTTGGGTTCTAACCTGTTGCCG (site TAGCACCCTTG) | 0.356
18 | TAGCAGTCTTGGGTTCTAACCTGTTGCGC (site CGCGCCACTAG) | 0.251
19 | TAGCAGTCTTGGGTTCTAACCTGTTGCGC (site TAGCAGTCTGC) | 2.05
20 | TAGCATGCTTGGGTTCTAACCTGTTGCAA (site TAGCATGCTAT) | 0.382
21 | TAGCATGCTTGGGTTCTAACCTGTTGCAA (site TAGCATGCTCT) | 0.597
22 | TAGCATGCTTGGGTTCTAACCTGTTGCAA (site TAGCATGCTGT) | 0.115

Row | Sequence | recombinant barcode read abundance (log10)
23 | TAGCATGCTTGGGTTCTAACCTGTTGCAA (site TAGCATGCTTT) | 0.324
24 | TAGCATGCTTGGGTTCTAACCTGTTGCAC (site TAGCATGCTAT) | 0.677
25 | TAGCATGCTTGGGTTCTAACCTGTTGCAC (site TAGCATGCTCT) | 0.203
26 | TAGCATGCTTGGGTTCTAACCTGTTGCAC (site TAGCATGCTGT) | 0.978
27 | TAGCATGCTTGGGTTCTAACCTGTTGCAC (site TAGCATGCTTT) | 0.306
28 | TAGCCTTCTTGGGTTCTAACCTGTTGCTA (site TAGCCTTCTCA) | 0.0251
29 | TAGCCTTCTTGGGTTCTAACCTGTTGCTA (site TAGCCTTCTTA) | 0.129
30 | TAGCGGCCTTGGGTTCTAACCTGTTGCGG (site CCAGTATCTAT) | 0.453
31 | TAGCGGCCTTGGGTTCTAACCTGTTGCGG (site TAGCGGCCTCC) | 2.23
32 | TAGGAAACTTGGGTTCTAACCTGTTGCGT (site TAGGAAACTAC) | 2.98
33 | TAGGAAACTTGGGTTCTAACCTGTTGCGT (site TAGGACACTAC) | 0.0791
34 | TAGGAAACTTGGGTTCTAACCTGTTGCGT (site TAGGAGACTAC) | 0.781
35 | TAGGAAACTTGGGTTCTAACCTGTTGCGT (site TAGGATACTAC) | 0.447
36 | TAGGCGACTTGGGTTCTAACCTGTTGCTA (site TAGGCGACTTA) | 0.454
37 | TAGGCGACTTGGGTTCTAACCTGTTGCTA (site TAGGGCACTTA) | 0.156
38 | TAGGCGACTTGGGTTCTAACCTGTTGCTT (site TAGACGACTAA) | 0.177
39 | TAGGCGACTTGGGTTCTAACCTGTTGCTT (site TAGCCGACTAA) | 0.182
40 | TAGGCGACTTGGGTTCTAACCTGTTGCTT (site TAGGCGACTAA) | 0.395
41 | TAGGCGACTTGGGTTCTAACCTGTTGCTT (site TAGTCGACTAA) | 0
42 | TAGGCGTCTTGGGTTCTAACCTGTTGCAG (site TAGCCTTCTCT) | 0.0835
43 | TAGGCGTCTTGGGTTCTAACCTGTTGCAG (site TAGGCGTCTCT) | 2.27
44 | TAGGCTCCTTGGGTTCTAACCTGTTGCAC (site TAGGCTCCTAT) | 0.2

Row | Sequence | recombinant barcode read abundance (log10)
45 | TAGGCTCCTTGGGTTCTAACCTGTTGCAC (site TAGGCTCCTCT) | 0.0904
46 | TAGGCTCCTTGGGTTCTAACCTGTTGCAC (site TAGGCTCCTGT) | 1.94
47 | TAGGCTCCTTGGGTTCTAACCTGTTGCAC (site TAGGCTCCTTT) | 0.726
48 | TAGGCTCCTTGGGTTCTAACCTGTTGCTT (site TACGGTCCTAA) | 0.0632
49 | TAGGCTCCTTGGGTTCTAACCTGTTGCTT (site TAGGCTCCTAA) | 0.277
50 | TAGGCTGCTTGGGTTCTAACCTGTTGCAT (site TAGGCTGCTAT) | 0.882
51 | TAGGCTGCTTGGGTTCTAACCTGTTGCAT (site TTGGGTGCTAT) | 0.0414
52 | TAGGGCACTTGGGTTCTAACCTGTTGCTA (site TAGGCGACTTA) | 0.875
53 | TAGGGCACTTGGGTTCTAACCTGTTGCTA (site TAGGGCACTTA) | 1.44
54 | TAGGGTCCTTGGGTTCTAACCTGTTGCGG (site TAAGGTCCTCT) | 1.35
55 | TAGGGTCCTTGGGTTCTAACCTGTTGCGG (site TAGGGTCCTCC) | 2.88
56 | TAGGGTTCTTGGGTTCTAACCTGTTGCGG (site CAGGGTCCTCC) | 0.0906
57 | TAGGGTTCTTGGGTTCTAACCTGTTGCGG (site TAGGGTTCTCC) | 3.01
58 | TAGGTCACTTGGGTTCTAACCTGTTGCAT (site TAGATCACTAT) | 0.337
59 | TAGGTCACTTGGGTTCTAACCTGTTGCAT (site TAGCTCACTAT) | 0.0353
60 | TAGGTCACTTGGGTTCTAACCTGTTGCAT (site TAGGTCACTAT) | 2.43
61 | TAGGTCACTTGGGTTCTAACCTGTTGCAT (site TAGTTCACTAT) | 0.0621
62 | TAGTAACCTTGGGTTCTAACCTGTTGCTT (site TAGTAACCTAA) | 0.683
63 | TAGTAACCTTGGGTTCTAACCTGTTGCTT (site TAGTACCCTCA) | 0.0923
64 | TAGTACTCTTGGGTTCTAACCTGTTGCTC (site TAGTACTCTAA) | 0.096
65 | TAGTACTCTTGGGTTCTAACCTGTTGCTC (site TAGTACTCTCA) | 0.429
66 | TAGTACTCTTGGGTTCTAACCTGTTGCTC (site TAGTACTCTGA) | 1.52

Row | Sequence | recombinant barcode read abundance (log10)
67 | TAGTACTCTTGGGTTCTAACCTGTTGCTC (site TAGTACTCTTA) | 0.124
68 | TAGTATACTTGGGTTCTAACCTGTTGCTG (site TAGTATACTCA) | 1.16
69 | TAGTATACTTGGGTTCTAACCTGTTGCTG (site TCGTATACTCC) | 0.0803
70 | TAGTATCCTTGGGTTCTAACCTGTTGCCT (site TAGTAAGCTAG) | 0.433
71 | TAGTATCCTTGGGTTCTAACCTGTTGCCT (site TAGTATCCTAG) | 1.04
72 | TAGTATGCTTGGGTTCTAACCTGTTGCTA (site TAGTATCCTTA) | 0.0173
73 | TAGTATGCTTGGGTTCTAACCTGTTGCTA (site TAGTATGCTTA) | 1.39
74 | TAGTCAACTTGGGTTCTAACCTGTTGCGT (site TAGTCAACTAC) | 0.593
75 | TAGTCAACTTGGGTTCTAACCTGTTGCGT (site TGGCCAACTAC) | 0.0928
76 | TAGTCAGCTTGGGTTCTAACCTGTTGCAC (site TAGTCAGCTGT) | 1.2
77 | TAGTCAGCTTGGGTTCTAACCTGTTGCAC (site TGGTCGGCTGT) | 0.00985
78 | TAGTCCTCTTGGGTTCTAACCTGTTGCTA (site TAGTCCTCTAA) | 0.0289
79 | TAGTCCTCTTGGGTTCTAACCTGTTGCTA (site TAGTCCTCTCA) | 0.0797
80 | TAGTCCTCTTGGGTTCTAACCTGTTGCTA (site TAGTCCTCTGA) | 0.0492
81 | TAGTCCTCTTGGGTTCTAACCTGTTGCTA (site TAGTCCTCTTA) | 1.05
82 | TAGTCCTCTTGGGTTCTAACCTGTTGCTC (site TAGTCCTCTAA) | 0.0149
83 | TAGTCCTCTTGGGTTCTAACCTGTTGCTC (site TAGTCCTCTCA) | 0.0708
84 | TAGTCCTCTTGGGTTCTAACCTGTTGCTC (site TAGTCCTCTGA) | 0.935
85 | TAGTCCTCTTGGGTTCTAACCTGTTGCTC (site TAGTCCTCTTA) | 0.118
86 | TAGTGAACTTGGGTTCTAACCTGTTGCAC (site GCCGAGCCTTG) | 0.0124
